Test results published in patent US20230072421A1, “TARGETED RADIOPHARMACEUTICALS FOR THE DIAGNOSIS AND TREATMENT OF PROSTATE CANCER” (Bayer AS, priority 2019, published 2023).

Biological target: T1, PSMA-expressing LNCaP cells (Homo sapiens, UniProt Q04609)
T1 construct: PSMA-expressing LNCaP cells; endogenous in cells; host or cells: LNCaP
Assay: Binding competition assay against 3H-PSMA-617 on LNCaP cells
Method: Cells were incubated at 37° C. and 5% CO2 over night. […] After addition of the compounds in growth media the cells were swiveled slightly on a shaker mixing for 10 min followed by incubation for 2 h at 37° C., 5% C02. Following the incubation time the supernatant was removed by pipetting and cells were washed twice with ice cold PBS (total of 800 μl). Cells were lysed in 500 μl of 0.3M NaOH (PanReac AppliChem ITW Reagents) by vigorous shaking for 15 min and the cell lysated pipetted into scintillator tubes (S207-[…]® Scintillation Vials 6.5 ml #S207, Simport). In the following the wells were washed with 500 μl PBS and the washing PBS added to the corresponding samples in the sincitallator tubes. To each sample in the scintillator tubes 4 mL of Ultima Gold liquid scintillation cocktail (Sigma-Aldrich #L8286) was added and the samples let stand for at least 30 min. Thereafter radioactivity was counted in a Tri-Carb Liquid Scinzillation Analyzer (Perkin Elmer).

[1] = LNCaP cells, 10 nM 3H-PSMA-617, competing non-radiolabeled compound 10 nM, 2 h at 37° C., triplicates
[2] = LNCaP cells, 10 nM 3H-PSMA-617, competing non-radiolabeled compound 100 nM, 2 h at 37° C., triplicates

T1 sequence (Q04609 whole entry): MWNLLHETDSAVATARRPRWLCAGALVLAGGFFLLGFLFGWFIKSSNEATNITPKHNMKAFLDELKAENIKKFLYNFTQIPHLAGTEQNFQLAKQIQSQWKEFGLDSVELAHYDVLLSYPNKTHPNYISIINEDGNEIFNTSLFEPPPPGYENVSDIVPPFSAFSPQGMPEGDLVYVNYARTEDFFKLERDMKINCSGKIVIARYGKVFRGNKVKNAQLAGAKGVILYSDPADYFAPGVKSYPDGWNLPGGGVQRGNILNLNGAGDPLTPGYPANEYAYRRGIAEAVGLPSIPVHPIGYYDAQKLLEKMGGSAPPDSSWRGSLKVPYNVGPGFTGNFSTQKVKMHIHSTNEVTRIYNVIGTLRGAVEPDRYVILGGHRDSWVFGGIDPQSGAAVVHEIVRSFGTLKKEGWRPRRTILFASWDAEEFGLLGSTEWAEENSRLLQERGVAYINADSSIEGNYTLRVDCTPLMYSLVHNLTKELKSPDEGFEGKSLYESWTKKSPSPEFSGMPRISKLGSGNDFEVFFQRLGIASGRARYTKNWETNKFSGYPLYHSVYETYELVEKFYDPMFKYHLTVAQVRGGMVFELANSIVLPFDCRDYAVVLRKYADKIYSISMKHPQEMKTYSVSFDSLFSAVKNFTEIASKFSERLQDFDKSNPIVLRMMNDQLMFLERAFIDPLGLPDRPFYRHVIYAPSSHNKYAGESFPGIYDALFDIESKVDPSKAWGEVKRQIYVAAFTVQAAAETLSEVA

| remaining activity at 0.01 µM [1] [%] | remaining activity at 0.1 µM [2] [%] | SMILES | competition against 3H-PSMA-617 on PSMA-expressing LNCaP cells (in words) (comparison between examples) | % remaining 3H-PSMA-617 @ 10 nM (mean) [1] [%] | % remaining 3H-PSMA-617 @ 100 nM (mean) [2] [%] |
| --- | --- | --- | --- | --- | --- |
| 113 | 92 | NC[C@H]1CC[C@H](CNC(=O)N[C@@H](Cc2ccc3ccccc3c2)C(=O)NCCCC[C@H](NC(=O)N[C@@H](CCC(=O)O)C(=O)O)C(=O)O)CC1 [Example 29-A, (5S,12S,16S)-1-[(1r,4S)-4-(aminomethyl)cyclohexyl]-5-[(naphthalen-2-yl)methyl]-3,6,14-trioxo-2,4,7,13,15-pentaazaoctadecane-12,16,18-tricarboxylic acid] |  |  |  |
| 96 | 82 | NC[C@H]1CC[C@H](C(=O)N[C@@H](Cc2csc3ccccc23)C(=O)NCCCC[C@H](NC(=O)N[C@@H](CCC(=O)O)C(=O)O)C(=O)O)CC1 [Example 43-A, N^6—{N-[(1r,4S)-4-(aminomethyl)cyclohexane-1-carbonyl]-3-(1-benzothiophen-3-yl)-L-alanyl}-N^2-{[(1S)-1,3-dicarboxypropyl]carbamoyl}-L-lysine] |  |  |  |
| 85 | 68 | NC[C@H]1CC[C@H](C(=O)N[C@H](Cc2ccc3cnccc3c2)C(=O)NCCCC[C@H](NC(=O)N[C@@H](CCC(=O)O)C(=O)O)C(=O)O)CC1 [Example 44-A, (3R,10S,14S)-1-[(1r,4S)-4-(aminomethyl)cyclohexyl]-3-[(isoquinolin-6-yl)methyl]-1,4,12-trioxo-2,5,11,13-tetraazahexadecane-10,14,16-tricarboxylic acid] |  |  |  |
| 86 | 78 | NC[C@H]1CC[C@H](C(=O)N[C@H](Cc2ccc3ccncc3c2)C(=O)NCCCC[C@H](NC(=O)N[C@@H](CCC(=O)O)C(=O)O)C(=O)O)CC1 [Example 42-A, (3R,10S,14S)-1-[(1r,4S)-4-(aminomethyl)cyclohexyl]-3-[(isoquinolin-7-yl)methyl]-1,4,12-trioxo-2,5,11,13-tetraazahexadecane-10,14,16-tricarboxylic acid] |  |  |  |
| 145 | 75 | CNc1cc(C[C@@H](NC(=O)[C@H]2CC[C@H](CN)CC2)C(=O)NCCCC[C@H](NC(=O)N[C@@H](CCC(=O)O)C(=O)O)C(=O)O)cc2ccccc12 [Example 37-A, (3R,10S,14S)-1-[(1r,4S)-4-(aminomethyl)cyclohexyl]-3-{[4-(methylamino)naphthalen-2-yl]methyl}-1,4,12-trioxo-2,5,11,13-tetraazahexadecane-10,14,16-tricarboxylic acid] |  |  |  |
| 55 | 11 | CNc1cc(C[C@@H](NC(=O)[C@H]2CC[C@H](CNC(=O)CN3CCN(CC(=O)O)CCN(CC(=O)O)CCN(CC(=O)O)CC3)CC2)C(=O)NCCCC[C@H](NC(=O)N[C@@H](CCC(=O)O)C(=O)O)C(=O)O)cc2ccccc12 [Example 37-B, (3R,10S,14S)-3-{[4-(methylamino)naphthalen-2-yl]methyl}-1,4,12-trioxo-1-[(1r,4S)-4-({2-[4,7,10-tris(carboxymethyl)-1,4,7,10-tetraazacyclododecan-1-yl]acetamido}methyl)cyclohexyl]-2,5,11,13-tetraazahexadecane-10,14,16-tricarboxylic acid] |  |  |  |
|  |  | O=C(O)CC[C@H](NC(=O)N[C@@H](CCCCNC(=O)[C@H](Cc1ccc2ccccc2c1)NC(=O)[C@H]1CC[C@H](CNC(=O)COCC(=O)NCCOCCOCCOCCOCCOCCOCCOCCOCCOCCOCCOCCNC(=O)COCC(=O)Nc2ccc(CC(CN(CCNC(=O)c3ccn(CCO)c(=O)c3O)CCNC(=O)c3ccn(CCO)c(=O)c3O)CN(CCNC(=O)c3ccn(CCO)c(=O)c3O)CCNC(=O)c3ccn(CCO)c(=O)c3O)cc2)CC1)C(=O)O)C(=O)O [Example 1-PEG] |  | 80 | 41 |
| 92 | 111 | CC(C)(C)c1ccc(C[C@H](NC(=O)[C@H]2CC[C@H](CN)CC2)C(=O)NCCCC[C@H](NC(=O)N[C@@H](CCC(=O)O)C(=O)O)C(=O)O)cc1 [Example 8-A, N^6—{N-[(1r,4S)-4-(aminomethyl)cyclohexane-1-carbonyl]-4-tert-butyl-L-phenylalanyl}-N^2-{[(1S)-1,3-dicarboxypropyl]carbamoyl}-L-lysine] |  |  |  |
| 88 | 34 | O=C(O)CC[C@H](NC(=O)N[C@@H](CCCCNC(=O)[C@@H](Cc1ccc2ccncc2c1)NC(=O)[C@H]1CC[C@H](CNC(=O)CN2CCN(CC(=O)O)CCN(CC(=O)O)CCN(CC(=O)O)CC2)CC1)C(=O)O)C(=O)O [Example 42-B, (3R,10S,14S)-3-[(isoquinolin-7-yl)methyl]-1,4,12-trioxo-1-[(1r,4S)-4-({2-[4,7,10-tris(carboxymethyl)-1,4,7,10-tetraazacyclododecan-1-yl]acetamido}methyl)cyclohexyl]-2,5,11,13-tetraazahexadecane-10,14,16-tricarboxylic acid] |  |  |  |
| 81 | 32 | CNc1cc2ccccc2cc1C[C@@H](NC(=O)[C@H]1CC[C@H](CNC(=O)CN2CCN(CC(=O)O)CCN(CC(=O)O)CCN(CC(=O)O)CC2)CC1)C(=O)NCCCC[C@H](NC(=O)N[C@@H](CCC(=O)O)C(=O)O)C(=O)O [Example 39-B, (3R,10S,14S)-3-{[3-(methylamino)naphthalen-2-yl]methyl}-1,4,12-trioxo-1-[(1r,4S)-4-({2-[4,7,10-tris(carboxymethyl)-1,4,7,10-tetraazacyclododecan-1-yl]acetamido}methyl)cyclohexyl]-2,5,11,13-tetraazahexadecane-10,14,16-tricarboxylic acid] |  |  |  |
| 108 | 124 | Cc1ccc(C[C@H](NC(=O)[C@H]2CC[C@H](CN)CC2)C(=O)NCCCC[C@H](NC(=O)N[C@@H](CCC(=O)O)C(=O)O)C(=O)O)cc1 [Example 13-A, N^6—{N-[(1r,4S)-4-(aminomethyl)cyclohexane-1-carbonyl]-4-methyl-L-phenylalanyl}-N^2-{[(1S)-1,3-dicarboxypropyl]carbamoyl}-L-lysine] |  |  |  |
| 79 | 90 | NC[C@H]1CC[C@H](C(=O)N[C@@H](Cc2cccc(S(F)(F)(F)(F)F)c2)C(=O)NCCCC[C@H](NC(=O)N[C@@H](CCC(=O)O)C(=O)O)C(=O)O)CC1 [Example 16-A, N^6—{N-[(1r,4S)-4-(aminomethyl)cyclohexane-1-carbonyl]-3-(pentafluoro-lambda^6-sulfanyl)-L-phenylalanyl}-N^2-{[(1S)-1,3-dicarboxypropyl]carbamoyl}-L-lysine] |  |  |  |
| 71 | 21 | O=C(O)CC[C@H](NC(=O)N[C@@H](CCCCNC(=O)[C@H](Cc1ccc2ccccc2c1)NC(=O)[C@H]1CC[C@H](CNC(=S)Nc2ccc(CC(CN(CCNC(=O)c3ccn(CCO)c(=O)c3O)CCNC(=O)c3ccn(CCO)c(=O)c3O)CN(CCNC(=O)c3ccn(CCO)c(=O)c3O)CCNC(=O)c3ccn(CCO)c(=O)c3O)cc2)CC1)C(=O)O)C(=O)O [Example 1-F, (3S,10S,14S)-1-{(1r,4S)-4-[({[4-(3-[bis(2-{[3-hydroxy-1-(2-hydroxyethyl)-2-oxo-1,2-dihydropyridine-4-carbonyl]amino}ethyl)amino]-2-{[bis(2-{[3-hydroxy-1-(2-hydroxyethyl)-2-oxo-1,2-dihydropyridine-4-carbonyl]amino}ethyl)amino]methyl}propyl)phenyl]carbamothioyl}amino)methyl]cyclohexyl}-3-[(naphthalen-2-yl)methyl]-1,4,12-trioxo-2,5,11,13-tetraazahexadecane-10,14,16-tricarboxylic acid] |  |  |  |

| SMILES | remaining activity at 0.01 µM [1] [%] | remaining activity at 0.1 µM [2] [%] | competition against 3H-PSMA-617 on PSMA-expressing LNCaP cells (in words) (comparison between examples) | % remaining 3H-PSMA-617 @ 10 nM (mean) [1] [%] | % remaining 3H-PSMA-617 @ 100 nM (mean) [2] [%] |
| --- | --- | --- | --- | --- | --- |
| NC[C@H]1CC[C@H](C(=O)N[C@@H](Cc2ccc(O)cc2)C(=O)NCCCC[C@H](NC(=O)N[C@@H](CCC(=O)O)C(=O)O)C(=O)O)CC1 [Example 15-A, N^6—{N-[(1r,4S)-4-(aminomethyl)cyclohexane-1-carbonyl]-L-tyrosyl}-N^2-{[(1S)-1,3-dicarboxypropyl]carbamoyl}-L-lysine] | 133 | 111 |  |  |  |
| O=C(O)CC[C@H](NC(=O)N[C@@H](CCCCNC(=O)[C@H](Cc1ccc2ccccc2n1)NC(=O)c1ccc(CNC(=O)CN2CCN(CC(=O)O)CCN(CC(=O)O)CCN(CC(=O)O)CC2)cn1)C(=O)O)C(=O)O [Example 34-B, N^6-{3-(quinolin-2-yl)-N-[5-({2-[4,7,10-tris(carboxymethyl)-1,4,7,10-tetraazacyclododecan-1-yl]acetamido}methyl)pyridine-2-carbonyl]-L-alanyl}-N^2-{[(1S)-1,3-dicarboxypropyl]carbamoyl}-L-lysine] | 43 | 6 | improved competition |  |  |
| O=C(O)CC[C@H](NC(=O)N[C@@H](CCCCNC(=O)[C@H](Cc1ccc2ccccc2c1)NC(=O)[C@H]1CC[C@H](CNC(=O)CN2CCN(CC(=O)O)CCN(CC(=O)O)CCN(CC(=O)O)CC2)CC1)C(=O)O)C(=O)O [Example 1-B, (3S,10S,14S)-3-[(naphthalen-2-yl)methyl]-1,4,12-trioxo-1-[(1r,4S)-4-({2-[4,7,10-tris(carboxymethyl)-1,4,7,10-tetraazacyclododecan-1-yl]acetamido}methyl)cyclohexyl]-2,5,11,13-tetraazahexadecane-10,14,16-tricarboxylic acid, reference compound] | 66 | 17 |  |  |  |
